{"source": "patent US20090017038A1", "about": "“Sigma-2 Receptor, Method of Screening of Specific Ligands and Use of the Same in Diagnostic or Therapeutic Methods” (priority 2006, published 2009)", "key": {"sigma-2 receptor [1]": {"target": "T1, sigma-2 receptor (Homo sapiens, UniProt Q5BJF2)", "T1 sequence (Q5BJF2 whole entry, species assumed)": "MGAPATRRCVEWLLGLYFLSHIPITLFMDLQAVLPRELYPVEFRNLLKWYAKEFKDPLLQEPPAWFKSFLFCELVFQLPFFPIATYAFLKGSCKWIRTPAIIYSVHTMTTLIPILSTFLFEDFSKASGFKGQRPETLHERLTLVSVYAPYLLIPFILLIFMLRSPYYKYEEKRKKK", "assay": "sigma-2 receptor activity"}, "sigma-2 receptor [2]": {"target": "T1, sigma-2 receptor", "assay": "sigma-2 receptor affinity", "type": "binding"}, "[3]": {"test_system": "sigma-2 receptor (affinity chromatography-eluted proteins from SK-N-SH membranes)", "assay": "saturation binding analysis with [3H]-DTG on affinity column-eluted proteins", "design": "species or system human", "settings": "[3H]-DTG saturation, FIG. 2A", "method": "The samples, containing 400 μg of protein, radioligand, 10 μM of unlabeled DTG to determine nonspecific binding, and 1 μM of (+)-pentazocine to mask the sigma-1 receptors, were brought to equilibrium Into a final volume of 500 μL 50 mM Tris-HCl at pH 8.0 for 120 min at 25° C. At equilibrium, 5 mL buffer (50 mM Tris-HCl, pH 7.4) were added. Samples were filtered on GF/C membranes, acclimatized in 0.5% PEI for 30 min prior to use. Filters were washed twice with the buffer (5 mL). Radioactivity count was performed on a LS-6500 Beckman Scintillation Counter."}, "sigma-2 receptor [4]": {"target": "T1, sigma-2 receptor", "settings": "literature (Perrone 2000; Berardi 1996); cited from earlier work"}, "sigma-2 receptor [5]": {"target": "T1, sigma-2 receptor", "settings": "literature (Perrone 2000; Berardi 1996); cited from earlier work", "remark": "listed apart in the source"}, "[6]": {"test_system": "neuroblastoma or glioma tumour cells", "assay": "cytotoxicity assay (LDH level)", "type": "cell-based", "protocol": "(§1) The antiproliferative assay for compounds was performed by using the MTT assay (Mossman et al. 1983, J. Immunol. Methods 65, pp 55-63). The cytotoxicity assay was performed by measuring the LDH level as reported by Vilner and Bowen 2000, J. Pharmacol. Exp. Ther. 292, pp 408-413. The detailed experimental part is reported in Colabufo et al. 2004, Naunyn Schmiedeberg's Arch. Pharmacol. 370, pp. 106-113."}, "[7]": {"target": "mixture of the affinity column-eluted histone proteins (sigma-2 receptor)", "assay": "competition binding assay with [3H]-DTG on mixture of affinity column-eluted histone proteins", "design": "species or system human", "settings": "20 mcg histone proteins, radioligand [3H]-DTG", "protocol": "The formation of a complex was highlighted through an assay in which the histone proteins were suspended in 50 mM Tris pH 8.0. […] At equilibrium, determined by the above-mentioned kinetic studies, the histone/radioligand complex was separated after 120 min by filtration on glass fiber (GF/C) membranes, and quantification of the same was performed by radioactivity count.\nThe sample was incubated for 120 min at 25° C., then the histone/radioligand complex was rapidly filtered on ø 25 mm GF/C membranes. The filter was washed twice with 3 mL buffer. Scintillation liquid was added and a radioactivity reading was performed. The displacement rate was calculated as difference (%) with respect to the specific binding measures by using 10 μM of DTG."}, "[8]": {"test_system": "neuroblastoma or glioma tumour cells", "assay": "antiproliferative assay (MTT)", "type": "cell-based", "protocol": "as §1"}}, "note": "pKi: −log10 of the molar value."}
{"smiles": "COc1ccc(N)c2c1CCCC2CCCN1CCN(C2CCCCC2)CC1", "note": "(centres unmarked) [compound 2, 1-cyclohexyl-4-[3-(8-amino-5-methoxy-1,2,3,4-tetrahydronaphtalen-1-yl)propyl]piperazine]", "values": [{"measurement": "sigma-2 activity of amino-substituted ligand relative to PB28", "setting": "sigma-2 receptor [1]", "result": "unmodified"}, {"measurement": "affinity of amino-substituted ligand relative to PB28", "setting": "sigma-2 receptor [2]", "result": "unmodified"}]}
{"smiles": "Cc1ccccc1N=C(N)Nc1ccccc1C", "note": "[[^3H]-DTG]", "values": [{"measurement": "Bmax", "setting": "[3]", "result": "588±50 fmol/mg of protein"}]}
{"smiles": "COc1cccc2c1CCCC2CCCN1CCN(C2CCCCC2)CC1", "note": "(centres unmarked) [PB28]", "values": [{"measurement": "affinity for sigma-2 receptor", "setting": "sigma-2 receptor [4]", "result": "high affinity"}, {"measurement": "agonist activity at sigma-2 receptor", "setting": "sigma-2 receptor [5]", "result": "potent agonist activity"}]}
{"smiles": "COc1ccccc1[C@H]1CC[C@H](N2CCN(C3CCCCC3)CC2)CC1", "note": "[trans-1-cyclohexyl-4-[4-(2-methoxy-phenyl)cyclohexyl]piperazine]", "values": [{"measurement": "cytotoxic activity", "setting": "[6]", "result": "homogeneous to results reported in literature for the best ligand known to date: the compound PB28"}, {"measurement": "pKi", "setting": "[7]", "result": 10.17}, {"measurement": "antiproliferative activity", "setting": "[8]", "result": "homogeneous to results reported in literature for the best ligand known to date: the compound PB28"}]}
